In the supplement of paper PMC11061612:

Legend:
[1] = compound: C1CC(C1)(C(=O)[O-])C(=O)[O-].N.N.[Pt+2] [Carboplatin]; conditions: max 10 µM
In short: (§1)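 Cancer cell lines in 1536-well plates (7.5 μl DMEM/F12 or RPMI, 10% FBS) were held 24 hours at 37°C and 5% CO2 and then dosed for 72 hours at a final DMSO of typically 0.2%. Viability was taken from CellTiter-Glo 2.0 luminescence, scaled between blank-well and DMSO-well means. Curves were fitted as two-parameter logistic models with a non-linear mixed effects model, from which the single-agent IC50 was taken.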

[2] = compound: C1CN(CCC1(C(=O)N[C@@H](CCO)C2=CC=C(C=C2)Cl)N)C3=NC=NC4=C3C=CN4 [AZD5363]; conditions: max 10 µM
In short: as §1

[3] = compound: C=CCn1c(=O)c2cnc(Nc3ccc(N4CCN(C)CC4)cc3)nc2n1-c1cccc(C(C)(C)O)n1 [AZD1775]; conditions: max 3 µM
In short: as §1

[4] = compound: CC(=O)Nc1cccc(-n2c(=O)n(C3CC3)c(=O)c3c(Nc4ccc(I)cc4F)n(C)c(=O)c(C)c32)c1 [Trametinib]; conditions: max 1 µM
In short: as §1

[5] = compound: CC(=O)O[C@H]1C(=O)[C@@]2(C)[C@H]([C@H](OC(=O)c3ccccc3)[C@]3(O)C[C@H](OC(=O)[C@H](O)[C@@H](NC(=O)c4ccccc4)c4ccccc4)C(C)=C1C3(C)C)[C@]1(OC(C)=O)CO[C@@H]1C[C@@H]2O [Paclitaxel]; conditions: max 3 µM
In short: as §1

[6] = compound: CC(=O)c1c(C)c2cnc(Nc3ccc(N4CCNCC4)cn3)nc2n(C2CCCC2)c1=O [Palbociclib]; conditions: max 10 µM
In short: as §1

[7] = compound: CC(C)n1c(=O)n(C)c2cnc3cc(F)c(-c4ccc(OCCCN5CCCCC5)nc4)cc3c21 [AZD1390]; conditions: max 0.3 µM
In short: as §1

[8] = compound: CC1(C)CCC(CN2CCN(c3ccc(C(=O)NS(=O)(=O)c4ccc(NCC5CCOCC5)c([N+](=O)[O-])c4)c(Oc4cnc5[nH]ccc5c4)c3)CC2)=C(c2ccc(Cl)cc2)C1 [Venetoclax]; conditions: max 1 µM
In short: as §1

[9] = compound: CC1=C(C(=CC=C1)Cl)NC(=O)C2=CN=C(S2)NC3=CC(=NC(=N3)C)N4CCN(CC4)CCO [Dasatinib]; conditions: max 2 µM
In short: as §1

[10] = compound: CC1=CN2[C@@H](C1)C=NC3=CC(=C(C=C3C2=O)OC)OCCCCCOC4=C(C=C5C(=C4)N=C[C@@H]6CC(=CN6C5=O)C)OC [SG3199]; conditions: max 0.001 µM
In short: as §1

[11] = compound: CCN(CCO)CCCOc1ccc2c(Nc3cc(CC(=O)Nc4cccc(F)c4)[nH]n3)ncnc2c1 [AZD2811]; conditions: max 1 µM
In short: as §1

[12] = compound: CCc1c2c(nc3ccc(O)cc13)-c1cc3c(c(=O)n1C2)COC(=O)[C@]3(O)CC [SN-38]; conditions: max 0.3 µM
In short: as §1

[13] = compound: CN(C)CCCOc1ccc(-c2ccc3ncc4c(c3c2)n(C2CCOCC2)c(=O)n4C)cn1 [AZD0156]; conditions: max 3 µM
In short: as §1

[14] = compound: CN(CC[C@H](CSC1=CC=CC=C1)NC2=C(C=C(C=C2)S(=O)(=O)NC(=O)C3=CC=C(C=C3)N4CCC(CC4)[C@H](C5=CC=CC=C5C6=CC=C(C=C6)Cl)O)S(=O)(=O)C(F)(F)F)CCO [AZD4320]; conditions: max 1 µM
In short: as §1

[15] = compound: COc1cc(Nc2ncc3c(n2)-c2ccc(Cl)cc2C(c2c(F)cccc2OC)=NC3)ccc1C(=O)O [Alisertib]; conditions: max 10 µM
In short: as §1

[16] = compound: COc1cc([C@@H]2c3cc4c(cc3[C@@H](O[C@@H]3O[C@@H]5CO[C@@H](C)O[C@H]5[C@H](O)[C@H]3O)[C@H]3COC(=O)[C@H]23)OCO4)cc(OC)c1O [Etoposide]; conditions: max 10 µM
In short: as §1

[17] = compound: COc1cc2ncnc(Nc3ccc(F)c(Cl)c3)c2cc1OCCCN1CCOCC1 [Gefitinib]; conditions: max 10 µM
In short: as §1

[18] = compound: COc1cccc(OCCCN)c1-c1cc(Nc2cnc(C#N)cn2)n[nH]1 [Prexasertib]; conditions: max 1 µM
In short: as §1

[19] = compound: COc1cccc2c1C(=O)c1c(O)c3c(c(O)c1C2=O)C[C@@](O)(C(=O)CO)C[C@@H]3O[C@H]1C[C@H](N)[C@H](O)[C@H](C)O1 [Doxorubicin]; conditions: max 1 µM
In short: as §1

[20] = compound: COc1nnc2ccc(N3CCC(c4ccc(OCCN5CCN(C)C(=O)[C@H]5C)cc4)CC3)nn12 [AZD5153]; conditions: max 1 µM
In short: as §1

[21] = compound: CS(=O)(=O)CCNCc1ccc(-c2ccc3ncnc(Nc4ccc(OCc5cccc(F)c5)c(Cl)c4)c3c2)o1 [Lapatinib]; conditions: max 10 µM
In short: as §1

[22] = compound: C[C@@H](Nc1cc(F)cc(F)c1)c1cc(C(=O)N(C)C)cc2c(=O)cc(N3CCOCC3)oc12 [AZD8186]; conditions: max 10 µM
In short: as §1

[23] = compound: C[C@@H](Oc1cc(-c2cnn(C3CCNCC3)c2)cnc1N)c1c(Cl)ccc(F)c1Cl [Crizotinib]; conditions: max 10 µM
In short: as §1

[24] = compound: C[C@@H](c1ccc2nccn2c1)n1nnc2ncc(-c3cnn(C)c3)nc21 [Savolitinib]; conditions: max 1 µM
In short: as §1

[25] = compound: C[C@@H]1COCCN1C2=NC(=NC(=C2)C3(CC3)[S@](=N)(=O)C)C4=C5C=CNC5=NC=C4 [AZD6738]; conditions: max 10 µM
In short: as §1

[26] = compound: Cc1c2c(nn1C)CSCc1cc(n(C)n1)CSc1cc(c3ccccc3c1)OCCCc1c(C(=O)O)n(C)c3c-2c(Cl)ccc13 [AZD5991]; conditions: max 1 µM
In short: as §1

[27] = compound: Cc1cc2ncnn2cc1Nc1ncc2c(n1)n(C1CCOCC1)c(=O)n2C [AZD7648]; conditions: max 10 µM
In short: as §1

[28] = compound: Cc1nc(-c2cn3c(n2)-c2ccc(-c4cnn(C(C)(C)C(N)=O)c4)cc2OCC3)n(C(C)C)n1 [Taselisib]; conditions: max 10 µM
In short: as §1

[29] = compound: Cn1cnc2c(F)c(Nc3ccc(Br)cc3Cl)c(C(=O)NOCCO)cc21 [Selumetinib]; conditions: max 10 µM
In short: as §1

[30] = compound: N#Cc1cnc(Nc2cc(NC[C@H]3CNCCO3)c(C(F)(F)F)cn2)cn1 [SRA737]; conditions: max 10 µM
In short: as §1

[31] = compound: NC1(c2ccc(-c3nc4ccn5c(=O)[nH]nc5c4cc3-c3ccccc3)cc2)CCC1 [MK-2206]; conditions: max 10 µM
In short: as §1

[32] = compound: Nc1ccn([C@@H]2O[C@H](CO)[C@@H](O)C2(F)F)c(=O)n1 [Gemcitabine]; conditions: max 0.3 µM
In short: as §1

[33] = compound: O=C(Nc1ccc2[nH]nc(-c3ccncc3)c2c1)[C@@H]1CCN(CC(=O)N2CCN(c3ccc(-c4ncccn4)cc3)CC2)C1; conditions: max 5 µM
In short: as §1

[34] = compound: O=C(c1cc(Cc2n[nH]c(=O)c3ccccc23)ccc1F)N1CCN(C(=O)C2CC2)CC1 [Olaparib]; conditions: max 10 µM
In short: as §1

[35] = compound: O=c1[nH]cc(F)c(=O)[nH]1 [5-Fluorouracil]; conditions: max 20 µM
In short: as §1

Cell Line	IC50, cell viability 72 h [1] [nM]	IC50, cell viability 72 h [2] [nM]	IC50, cell viability 72 h [3] [nM]	IC50, cell viability 72 h [4] [nM]	IC50, cell viability 72 h [5] [nM]	IC50, cell viability 72 h [6] [nM]	IC50, cell viability 72 h [7] [nM]	IC50, cell viability 72 h [8] [nM]	IC50, cell viability 72 h [9] [nM]	IC50, cell viability 72 h [10] [nM]	IC50, cell viability 72 h [11] [nM]	IC50, cell viability 72 h [12] [nM]	IC50, cell viability 72 h [13] [nM]	IC50, cell viability 72 h [14] [nM]	IC50, cell viability 72 h [15] [nM]	IC50, cell viability 72 h [16] [nM]	IC50, cell viability 72 h [17] [nM]	IC50, cell viability 72 h [18] [nM]	IC50, cell viability 72 h [19] [nM]	IC50, cell viability 72 h [20] [nM]	IC50, cell viability 72 h [21] [nM]	IC50, cell viability 72 h [22] [nM]	IC50, cell viability 72 h [23] [nM]	IC50, cell viability 72 h [24] [nM]	IC50, cell viability 72 h [25] [nM]	IC50, cell viability 72 h [26] [nM]	IC50, cell viability 72 h [27] [nM]	IC50, cell viability 72 h [28] [nM]	IC50, cell viability 72 h [29] [nM]	IC50, cell viability 72 h [30] [nM]	IC50, cell viability 72 h [31] [nM]	IC50, cell viability 72 h [32] [nM]	IC50, cell viability 72 h [33] [nM]	IC50, cell viability 72 h [34] [nM]	IC50, cell viability 72 h [35] [nM]
NCI-H2087 (Lung Adenocarcinoma)	> 10000	> 10000	> 3000	350	225	> 10000	> 300	> 1000	> 2000	> 1	> 1000	18.8	> 3000	> 1000	> 10000	> 10000	> 10000	96.2	> 1000	> 1000	> 10000	> 10000	> 10000	> 1000	> 10000	> 1000	> 10000	> 10000	6120	> 10000	> 10000	255	2200	> 10000	> 20000
PEO1 (Ovarian Carcinoma)	> 10000	> 10000	1540	> 1000	52.9	> 10000	> 300	> 1000	> 2000	> 1	> 1000	57.3	> 3000	> 1000	> 10000	> 10000	> 10000	> 1000	> 1000	> 1000	> 10000	> 10000	> 10000	> 1000	> 10000	> 1000	> 10000	8190	> 10000	> 10000	> 10000	> 300	> 5000	> 10000	> 20000
SK-HEP-1 (Hepatocellular Carcinoma)	> 10000	> 10000	> 3000	> 1000	45.4	9050	> 300	> 1000	> 2000	> 1	> 1000	83.5	> 3000	> 1000	> 10000	7400	> 10000	> 1000	698	> 1000	> 10000	> 10000	> 10000	> 1000	> 10000	> 1000	> 10000	> 10000	> 10000	> 10000	6200	> 300	> 5000	> 10000	> 20000
SW620 (Colorectal Carcinoma)	> 10000	> 10000	1140	39.6	116	> 10000	> 300	> 1000	> 2000	> 1	> 1000	32.2	> 3000	> 1000	> 10000	3420	> 10000	306	640	> 1000	> 10000	> 10000	> 10000	> 1000	> 10000	> 1000	> 10000	> 10000	911	> 10000	> 10000	97.6	928	> 10000	> 20000
WM1552C (Melanoma)	> 10000	> 10000	1760	158	51.5	> 10000	> 300	> 1000	1810	> 1	> 1000	152	> 3000	> 1000	7480	> 10000	> 10000	34.4	> 1000	> 1000	> 10000	> 10000	6260	> 1000	> 10000	759	> 10000	8740	7990	6180	> 10000	52.2	> 5000	> 10000	> 20000
